Experimental data: ChEMBL document CHEMBL4334500, “Macrocyclic Diterpenoids from Euphorbia helioscopia and Their Potential Anti-inflammatory Activity” (J Nat Prod, 2019)
The source made the active and inactive calls. The rule behind the calls is not given here.

Tests used:
[1] = test system: RAW264.7; test: Cytotoxicity against mouse RAW264.7 cells at 6.25 to 100 uM measured after 24 hrs by MTT assay; assay type: cell-based; details: raw264.7, 24 h
[2] = test system: RAW264.7; test: Anti-inflammatory activity in mouse RAW264.7 cells assessed as inhibition of LPS-stimulated NO production preincubated with LPS and measured after 20 hrs by Griess reagent-based assay; assay type: functional, cell-based
[3] = test system: RAW264.7; test: Antiinflammatory activity in mouse RAW264.7 cells assessed as effect on LPS-induced TNF-alpha mRNA expression after 12 to 24 hrs by FQ-PCR analysis; assay type: functional, cell-based
[4] = test system: RAW264.7; test: Antiinflammatory activity in mouse RAW264.7 cells assessed as decrease in LPS-induced IL-6 secretion after 24 hrs by ELISA; assay type: functional, cell-based
[5] = biological target: Transcription factor p65 (Mus musculus) (UniProt Q04207); test: Inhibition of LPS-induced NF-kappaB p65 translocation in mouse RAW264.7 cells at 3 to 12 uM incubated for 2 hrs by DAPI staining based immunofluorescence assay; assay type: cell-based
Sequence of Transcription factor p65 (Mus musculus) (Q04207 whole entry): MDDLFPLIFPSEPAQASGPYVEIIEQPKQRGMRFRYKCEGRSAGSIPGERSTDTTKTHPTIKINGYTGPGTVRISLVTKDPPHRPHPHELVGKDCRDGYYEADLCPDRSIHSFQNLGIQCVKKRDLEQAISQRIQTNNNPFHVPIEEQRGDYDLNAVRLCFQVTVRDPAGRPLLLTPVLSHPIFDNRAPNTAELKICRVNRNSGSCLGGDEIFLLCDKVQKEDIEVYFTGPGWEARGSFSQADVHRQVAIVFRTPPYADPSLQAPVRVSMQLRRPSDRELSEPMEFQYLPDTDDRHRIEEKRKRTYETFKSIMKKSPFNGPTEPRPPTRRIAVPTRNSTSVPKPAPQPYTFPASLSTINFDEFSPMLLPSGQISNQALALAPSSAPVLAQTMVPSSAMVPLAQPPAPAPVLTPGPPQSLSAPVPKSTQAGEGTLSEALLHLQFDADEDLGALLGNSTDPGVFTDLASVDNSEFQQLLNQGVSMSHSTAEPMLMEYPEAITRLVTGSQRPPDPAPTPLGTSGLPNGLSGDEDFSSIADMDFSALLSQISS

[6] = test system: RAW264.7; test: Antiinflammatory activity in mouse RAW264.7 cells assessed as decrease in LPS-induced TNF-alpha secretion after 24 hrs by ELISA; assay type: functional, cell-based
[7] = test system: RAW264.7; test: Antiinflammatory activity in mouse RAW264.7 cells assessed as decrease in LPS-induced IL-6 mRNA expression after 6 to 24 hrs by FQ-PCR analysis; assay type: functional, cell-based
[8] = test system: RAW264.7; test: Anti-inflammatory activity in mouse RAW264.7 cells assessed as inhibition of LPS-stimulated NO production at 15 uM preincubated with LPS and measured after 20 hrs by Griess reagent-based assay relative to control; assay type: functional

Structure (SMILES)	Activity [1]	inhibition [2]	other results
CC(=O)O[C@@H]1[C@@H](C)[C@H](C=C(C)C)C(=O)C[C@@H](OC(C)=O)/C(C)=C/[C@H]2[C@@H](OC(=O)c3ccccc3)[C@H](C)C[C@]12OC(C)=O	Non-Toxic	–	IC50 [2]: 7.4 µM; Activity [3]: inactive; Activity [4]: Dose-dependent effect; inhibition [5]: Active; Activity [6]: Dose-dependent effect; Activity [7]: Dose-dependent effect
CC(=O)O[C@@H]1[C@H](C)/C=C/C(C)(C)C(=O)C[C@@H](OC(=O)c2ccccc2)/C(C)=C/[C@H]2[C@@H](OC(=O)c3ccccc3)[C@H](C)C[C@]12OC(C)=O [EUPHOSCOPIN C]	Non-Toxic	inactive	–
C[C@@H]1C[C@H]2[C@@H]3CCC4=CC(=O)C=C[C@]4(C)[C@@]3(F)[C@@H](O)C[C@]2(C)[C@@]1(O)C(=O)CO [DEXAMETHASONE]	–	–	inhibition at 15 µM [8]: 34.2%
CC(=O)O[C@]12C[C@@H](C)[C@H](OC(=O)c3ccccc3)[C@@H]1/C=C(\C)C(=O)CC(=O)C(C)(C)C/C=C(\C)C2=O	Non-Toxic	inactive	–
CC(=O)O[C@@H]1[C@H](C)/C=C/C(C)(C)C(=O)CC/C(C)=C/[C@H]2[C@@H](OC(=O)c3ccccc3)[C@H](C)C[C@]12OC(C)=O	Non-Toxic	inactive	–
COc1cc(/C=C/c2ccccc2)c(C(=O)O)c(O)c1CC=C(C)C	–	–	inhibition at 15 µM [8]: 30.2%
CC(=O)O[C@@H]1[C@H](C)/C=C/C(C)(C)C(=O)C[C@@H](O)/C(C)=C/[C@H]2[C@@H](OC(=O)c3ccccc3)[C@H](C)C[C@]12OC(C)=O	Non-Toxic	inactive	–
CC(=O)O[C@@H]1[C@@H](C)/C=C/C(C)(C)C(=O)C[C@@H](O)/C(C)=C/[C@H]2[C@@H](OC(=O)c3ccccc3)[C@H](C)C[C@]12OC(C)=O	Non-Toxic	inactive	–
CC(=O)O[C@@H]1[C@@H](C)/C=C/C(C)(C)C(=O)C[C@@H](OC(C)=O)/C(C)=C/[C@H]2[C@@H](OC(=O)c3ccccc3)[C@H](C)C[C@]12OC(C)=O	Non-Toxic	inactive	–
CC(=O)O[C@]12C[C@@H](C)[C@H](OC(=O)c3ccccc3)[C@@H]1/C=C(\C)[C@H](OC(=O)c1ccccc1)CC(=O)C(C)(C)/C=C/[C@@H](C)C2=O	Non-Toxic	inactive	–
CC(=O)O[C@@H]1[C@@H](C)/C=C/C(C)(C)C(=O)C[C@@H](OC(C)=O)/C(C)=C/[C@H]2[C@@H](OC(=O)c3ccccc3)[C@@H](C)C[C@]12OC(C)=O	Non-Toxic	inactive	–
CC(=O)O[C@]12C[C@@H](C)[C@H](OC(=O)c3ccccc3)[C@@H]1/C=C(\C)[C@H](O)CC(=O)C(C)(C)C/C=C(\C)C2=O	Non-Toxic	inactive	–
CC(=O)O[C@]12C[C@H](C)[C@H](OC(=O)c3ccccc3)[C@@H]1/C=C(\C)[C@H](OC(=O)c1ccccc1)CC(=O)C(C)(C)/C=C/[C@@H](C)C2=O	Non-Toxic	inactive	–
